Assay results published in ChEMBL document CHEMBL1142296, “BACE1 inhibitors: optimization by replacing the P1' residue with non-acidic moiety” (Bioorg Med Chem Lett, 2008).

Tests used:
Beta-secretase 1 [1] = target: T1, Beta-secretase 1 (Homo sapiens, UniProt P56817); test: Inhibition of human recombinant BACE1
Beta-secretase 1 [2] = target: T1, Beta-secretase 1; test: Inhibition of human recombinant BACE1 at 2 uM
Beta-secretase 1 [3] = target: T1, Beta-secretase 1; test: Inhibition of human recombinant BACE1 at 0.2 uM

T1 sequence (P56817 whole entry): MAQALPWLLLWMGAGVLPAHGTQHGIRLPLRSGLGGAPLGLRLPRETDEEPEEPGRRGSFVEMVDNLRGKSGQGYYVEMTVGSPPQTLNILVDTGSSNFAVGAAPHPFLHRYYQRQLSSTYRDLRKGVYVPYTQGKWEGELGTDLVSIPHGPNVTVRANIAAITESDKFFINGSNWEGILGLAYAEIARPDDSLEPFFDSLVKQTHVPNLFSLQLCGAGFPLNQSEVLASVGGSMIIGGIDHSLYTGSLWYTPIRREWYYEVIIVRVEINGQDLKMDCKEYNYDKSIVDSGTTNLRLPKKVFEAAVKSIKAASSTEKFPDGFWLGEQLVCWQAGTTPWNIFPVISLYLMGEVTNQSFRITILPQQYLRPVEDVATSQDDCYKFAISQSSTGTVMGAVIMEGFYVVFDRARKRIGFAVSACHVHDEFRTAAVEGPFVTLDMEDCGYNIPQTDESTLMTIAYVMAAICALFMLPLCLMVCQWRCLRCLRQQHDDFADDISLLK

**Q.** With `CC(C)C[C@H](NC(=O)[C@@H](NC(=O)[C@@H](N)CNC(=O)c1nnn[nH]1)C(C)C)C(=O)N[C@@H](Cc1ccccc1)[C@@H](O)C(=O)NS(=O)(=O)C(F)(F)F` as the compound, how does the IC50 (Beta-secretase 1 [1]) read?
**A.** 29.9 nM

**Q.** What does the source list for `CC(C)C[C@H](NC(=O)[C@@H](NC(=O)[C@@H](N)CNC(=O)c1nn[nH]n1)C(C)C)C(=O)N[C@@H](Cc1ccccc1)[C@@H](O)C(=O)Nc1cccc([N+](=O)[O-])c1`?
**A.** inhibition (Beta-secretase 1 [2]): 96%; inhibition (Beta-secretase 1 [3]): 70%

**Q.** `CC(C)C[C@H](NC(=O)[C@@H](NC(=O)[C@@H](N)CCC(=O)O)C(C)C)C(=O)N[C@@H](Cc1ccccc1)[C@@H](O)C(=O)Nc1cc([N+](=O)[O-])cc([N+](=O)[O-])c1` was tested. Which inhibition (Beta-secretase 1 [2]) did it give?
**A.** 60%

**Q.** How did the inhibition (Beta-secretase 1 [2]) turn out when `CC(C)C[C@H](NC(=O)[C@@H](NC(=O)[C@@H](N)CNC(=O)c1nn[nH]n1)C(C)C)C(=O)N[C@@H](Cc1ccccc1)[C@@H](O)C(=O)Nc1cc(Br)cc(C(F)(F)F)c1` was run?
**A.** 92%

**Q.** What about the inhibition (Beta-secretase 1 [3]) of the same compound?
**A.** 57%

**Q.** How did the inhibition (Beta-secretase 1 [2]) turn out when `CC(C)C[C@H](NC(=O)[C@@H](NC(=O)[C@@H](N)CNC(=O)c1nn[nH]n1)C(C)C)C(=O)N[C@@H](Cc1ccccc1)[C@@H](O)C(=O)Nc1cc(Cl)cc(Cl)c1` was run?
**A.** 99%

**Q.** What about the inhibition (Beta-secretase 1 [3]) of the same compound?
**A.** 84%

**Q.** For `CC(C)C[C@H](NC(=O)[C@@H](NC(=O)[C@@H](N)CCC(=O)O)C(C)C)C(=O)N[C@@H](Cc1ccccc1)[C@@H](O)C(=O)Nc1cc(C(F)(F)F)cc(C(F)(F)F)c1`, which inhibition (Beta-secretase 1 [2]) is on record?
**A.** 74%

**Q.** How did the inhibition (Beta-secretase 1 [2]) turn out when `Cc1nc(NC(=O)[C@H](O)[C@H](Cc2ccccc2)NC(=O)[C@H](CC(C)C)NC(=O)[C@@H](NC(=O)[C@@H](N)CCC(=O)O)C(C)C)sc1C(=O)O` was run?
**A.** 94%

**Q.** How did the inhibition (Beta-secretase 1 [2]) turn out when `CC(C)C[C@H](NC(=O)[C@@H](NC(=O)[C@@H](N)CCC(=O)O)C(C)C)C(=O)N[C@@H](Cc1ccccc1)[C@@H](O)C(=O)Nc1cc(Cl)cc(Cl)c1` was run?
**A.** 78%

**Q.** `CC(C)C[C@H](NC(=O)[C@@H](NC(=O)[C@@H](N)CCC(=O)O)C(C)C)C(=O)N[C@@H](Cc1ccccc1)[C@@H](O)C(=O)Nc1cccc(C(=O)NS(=O)(=O)C(F)(F)F)c1` was tested. Which inhibition (Beta-secretase 1 [2]) did it give?
**A.** 86%

**Q.** What does the source list for `CC(C)C[C@H](NC(=O)[C@@H](NC(=O)[C@@H](N)CNC(=O)c1nn[nH]n1)C(C)C)C(=O)N[C@@H](Cc1ccccc1)[C@@H](O)C(=O)NS(=O)(=O)C(F)(F)F`?
**A.** inhibition (Beta-secretase 1 [2]): 98%; inhibition (Beta-secretase 1 [3]): 81%

**Q.** `CC(C)C[C@H](NC(=O)[C@@H](NC(=O)[C@@H](N)CNC(=O)c1nn[nH]n1)C(C)C)C(=O)N[C@@H](Cc1ccccc1)[C@@H](O)C(=O)Nc1cc(C(F)(F)F)cc(C(F)(F)F)c1` was tested. Which inhibition (Beta-secretase 1 [2]) did it give?
**A.** 95%

**Q.** What about the inhibition (Beta-secretase 1 [3]) of the same compound?
**A.** 68%

**Q.** How did the inhibition (Beta-secretase 1 [2]) turn out when `CC(C)C[C@H](NC(=O)[C@@H](NC(=O)[C@@H](N)CCC(=O)O)C(C)C)C(=O)N[C@@H](Cc1ccccc1)[C@@H](O)C(=O)Nc1cccc(C(=O)C(F)(F)F)c1` was run?
**A.** 51%

**Q.** With `CC(C)C[C@H](NC(=O)[C@@H](NC(=O)[C@@H](N)CCC(=O)O)C(C)C)C(=O)N[C@@H](Cc1ccccc1)[C@@H](O)C(=O)Nc1cccc(O)c1` as the compound, how does the inhibition (Beta-secretase 1 [2]) read?
**A.** 54%

**Q.** With `CC(C)C[C@H](NC(=O)[C@@H](NC(=O)[C@@H](N)CNC(=O)c1nnn[nH]1)C(C)C)C(=O)N[C@@H](Cc1ccccc1)[C@@H](O)C(=O)Nc1cc(Cl)cc(Cl)c1` as the compound, how does the IC50 (Beta-secretase 1 [1]) read?
**A.** 14 nM

**Q.** With `CC(C)C[C@H](NC(=O)[C@@H](NC(=O)[C@@H](N)CCC(=O)O)C(C)C)C(=O)N[C@@H](Cc1ccccc1)[C@@H](O)C(=O)Nc1cccc([N+](=O)[O-])c1` as the compound, how does the inhibition (Beta-secretase 1 [2]) read?
**A.** 71%

**Q.** `CC(C)C[C@H](NC(=O)[C@@H](NC(=O)[C@@H](N)CCC(=O)O)C(C)C)C(=O)N[C@@H](Cc1ccccc1)[C@@H](O)C(=O)Nc1ccccc1` was tested. Which inhibition (Beta-secretase 1 [2]) did it give?
**A.** 53%

**Q.** How did the inhibition (Beta-secretase 1 [2]) turn out when `CC(C)C[C@H](NC(=O)[C@@H](NC(=O)[C@@H](N)CCC(=O)O)C(C)C)C(=O)N[C@@H](Cc1ccccc1)[C@@H](O)C(=O)Nc1cc(Cl)c(O)c(Cl)c1` was run?
**A.** 80%

**Q.** `CC(C)C[C@H](NC(=O)[C@@H](NC(=O)[C@@H](N)CNC(=O)c1nn[nH]n1)C(C)C)C(=O)N[C@@H](Cc1ccccc1)[C@@H](O)C(=O)Nc1cccc(OC(F)(F)F)c1` was tested. Which inhibition (Beta-secretase 1 [2]) did it give?
**A.** 93%

**Q.** What about the inhibition (Beta-secretase 1 [3]) of the same compound?
**A.** 72%

**Q.** How did the inhibition (Beta-secretase 1 [2]) turn out when `CC(C)C[C@H](NC(=O)[C@@H](NC(=O)[C@@H](N)CCC(=O)O)C(C)C)C(=O)N[C@@H](Cc1ccccc1)[C@@H](O)C(=O)Nc1ccccc1O` was run?
**A.** 60%

**Q.** How did the inhibition (Beta-secretase 1 [2]) turn out when `CC(C)C[C@H](NC(=O)[C@@H](NC(=O)[C@@H](N)CNC(=O)c1nn[nH]n1)C(C)C)C(=O)N[C@@H](Cc1ccccc1)[C@@H](O)C(=O)Nc1cc([N+](=O)[O-])cc([N+](=O)[O-])c1` was run?
**A.** 96%

**Q.** And the inhibition (Beta-secretase 1 [3])?
**A.** 75%

**Q.** Which inhibition (Beta-secretase 1 [2]) does the source give for `CCOC(=O)c1sc(NC(=O)[C@H](O)[C@H](Cc2ccccc2)NC(=O)[C@H](CC(C)C)NC(=O)[C@@H](NC(=O)[C@@H](N)CCC(=O)O)C(C)C)nc1C` here?
**A.** 66%
